Consider one compound from patent US9139589B2, “Heteroaryls and uses thereof” (Millennium Pharmaceuticals, Inc., priority 2009, dated 2015).

This experiment addresses T1, PI3Kalpha (Homo sapiens, UniProt P42336).
T1 construct: His (N); host or cells: SF9 insect cells (baculovirus co-infection)
As to the kind of experiment: PI3K enzyme HTRF assay (PI3Kalpha). It counts as biochemical. From the text:
Active phosphatidylinositol 3′ kinase (PI3K) enzyme is purified at Millennium Pharmaceuticals from SF9 insect cells (Invitrogen) co-infected with baculovirus containing amino-terminal His-tagged p110α and p85α expression constructs.
The PI3K enzyme HTRF® assay makes use of an energy transfer complex comprised of biotin-PI(3,4,5)P3, Europhium labeled anti-GST monoclonal antibody, a GST-tagged GRP1 pleckstrin homology (PH) domain, and Streptavidin-APC (allophycocyanin). Excitation of the Europium in the complex results in a stable time-resolved fluorescence resonance energy transfer (FRET) signal. Phosphatidylinositol 3,4,5 triphosphate (PI(3,4,5)P3, the product of PI3K, disrupts the energy transfer complex by competing with biotin-PI(3,4,5)P3 for binding to the GRP1 PH domain, resulting in a decreased fluorescent signal. Inhibitors of PI3K in the reaction prevent a decrease in the fluorescent signal.
PI3K enzyme (325 pM) is incubated with di-C8 PI(4,5)P2 substrate (3.5 μM, CellSignals, Inc.) in assay buffer (50 mM HEPES pH 7.0, 5 mM DTT, 150 mM NaCl, 10 mM β-glycerophosphate, 5 mM MgCl2, 0.25 mM sodium cholate, 0.001% CHAPS) containing 25 μM ATP and 0.5 μL of test compound (in 100% DMSO) at multiple concentrations in a final volume of 20.5 μL in 384 well plates for 30 min at 22-23° C. […] Fluorescent signal for each well is then measured on an LJL_Analyst (Molecular Devices). […]
For orientation: TR-FRET usually uses a lanthanide donor and a delayed reading to cut background.

T1 sequence (P42336 whole entry): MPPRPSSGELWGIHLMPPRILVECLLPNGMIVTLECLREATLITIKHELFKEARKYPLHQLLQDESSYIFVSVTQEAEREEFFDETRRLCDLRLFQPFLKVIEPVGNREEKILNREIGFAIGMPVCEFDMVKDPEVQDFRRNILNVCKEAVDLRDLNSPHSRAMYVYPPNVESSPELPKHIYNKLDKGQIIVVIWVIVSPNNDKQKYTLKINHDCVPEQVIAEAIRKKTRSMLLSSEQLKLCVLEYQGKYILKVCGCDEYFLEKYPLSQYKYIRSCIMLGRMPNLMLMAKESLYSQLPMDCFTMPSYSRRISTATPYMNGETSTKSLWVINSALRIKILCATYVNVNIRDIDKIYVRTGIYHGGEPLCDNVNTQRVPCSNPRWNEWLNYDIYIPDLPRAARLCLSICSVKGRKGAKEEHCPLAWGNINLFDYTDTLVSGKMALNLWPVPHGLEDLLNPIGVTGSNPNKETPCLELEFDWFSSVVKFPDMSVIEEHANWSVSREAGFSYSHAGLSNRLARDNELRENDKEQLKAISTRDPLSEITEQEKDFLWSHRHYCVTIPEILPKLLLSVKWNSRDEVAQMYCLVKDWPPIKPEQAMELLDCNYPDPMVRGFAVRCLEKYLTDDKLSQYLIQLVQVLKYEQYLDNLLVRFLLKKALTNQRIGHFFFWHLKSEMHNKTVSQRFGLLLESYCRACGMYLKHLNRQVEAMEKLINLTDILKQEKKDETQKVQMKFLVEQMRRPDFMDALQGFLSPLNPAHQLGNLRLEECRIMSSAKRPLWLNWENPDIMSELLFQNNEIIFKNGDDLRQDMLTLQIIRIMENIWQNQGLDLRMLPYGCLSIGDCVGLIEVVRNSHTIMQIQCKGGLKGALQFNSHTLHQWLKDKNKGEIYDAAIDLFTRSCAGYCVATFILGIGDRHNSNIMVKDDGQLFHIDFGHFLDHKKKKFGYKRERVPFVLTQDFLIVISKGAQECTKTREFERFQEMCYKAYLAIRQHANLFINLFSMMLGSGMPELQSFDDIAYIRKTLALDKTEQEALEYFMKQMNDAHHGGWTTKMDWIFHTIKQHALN
T1 sequence (P27986 whole entry partner): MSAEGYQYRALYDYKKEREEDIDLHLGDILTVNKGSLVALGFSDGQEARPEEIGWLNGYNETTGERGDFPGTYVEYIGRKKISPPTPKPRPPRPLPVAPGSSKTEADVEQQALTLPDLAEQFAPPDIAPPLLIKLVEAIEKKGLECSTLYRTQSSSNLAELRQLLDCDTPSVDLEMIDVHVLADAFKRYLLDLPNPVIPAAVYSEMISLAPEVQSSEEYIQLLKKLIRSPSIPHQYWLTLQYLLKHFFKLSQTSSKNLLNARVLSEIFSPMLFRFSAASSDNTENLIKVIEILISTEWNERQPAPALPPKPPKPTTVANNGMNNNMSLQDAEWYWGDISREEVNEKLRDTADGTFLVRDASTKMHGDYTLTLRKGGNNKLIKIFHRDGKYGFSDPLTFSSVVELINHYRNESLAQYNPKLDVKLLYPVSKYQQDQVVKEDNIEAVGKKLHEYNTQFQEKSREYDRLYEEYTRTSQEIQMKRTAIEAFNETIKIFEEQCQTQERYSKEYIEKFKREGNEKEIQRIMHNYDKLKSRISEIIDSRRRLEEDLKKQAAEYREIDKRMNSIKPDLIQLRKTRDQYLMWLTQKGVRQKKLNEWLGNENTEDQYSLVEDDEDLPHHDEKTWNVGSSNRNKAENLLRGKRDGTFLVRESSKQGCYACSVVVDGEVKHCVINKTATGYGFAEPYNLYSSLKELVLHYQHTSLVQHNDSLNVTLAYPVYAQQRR

In general, IC50 refers to the point on the concentration scale where inhibition reaches its midpoint. In turn, `CC(=O)Nc1cc(-c2nc(-c3ccccc3Cl)c(NC(C)=O)s2)ccn1` [Example C-1, N-{4-[5-(acetylamino)-4-(2-chlorophenyl)-1,3-thiazol-2-yl]pyridin-2-yl}acetamide] registered an IC50 above 1 µM.
